{"source": "ChEMBL document CHEMBL1201862", "about": "“PubChem BioAssay data set” (2004)", "assay_in_all_cases": "NCI anticancer screen, dose series, 48 h", "key": {"SF-295": {"test_system": "SF-295"}, "SF-539": {"test_system": "SF-539"}, "HOP-62": {"test_system": "HOP-62"}, "NCI/ADR-RES": {"test_system": "NCI/ADR-RES"}, "SK-OV-3": {"test_system": "SK-OV-3"}, "HCT-15": {"test_system": "HCT-15"}, "MDA-MB-231": {"test_system": "MDA-MB-231"}, "SNB-19": {"test_system": "SNB-19"}, "786-0": {"test_system": "786-0"}, "NCI-H23": {"test_system": "NCI-H23"}, "U-251": {"test_system": "U-251"}, "RXF 393": {"test_system": "RXF 393"}, "HL-60": {"test_system": "HL-60"}, "SN12C": {"test_system": "SN12C"}, "HCC 2998": {"test_system": "HCC 2998"}, "ACHN": {"test_system": "ACHN"}, "PC-3": {"test_system": "PC-3"}, "CCRF-CEM": {"test_system": "CCRF-CEM"}, "NCI-H226": {"test_system": "NCI-H226"}, "CAKI-1": {"test_system": "CAKI-1"}, "OVCAR-5": {"test_system": "OVCAR-5"}, "OVCAR-4": {"test_system": "OVCAR-4"}, "MOLT-4": {"test_system": "MOLT-4"}, "COLO 205": {"test_system": "COLO 205"}, "MDA-MB-435": {"test_system": "MDA-MB-435"}, "DU-145": {"test_system": "DU-145"}, "UACC-62": {"test_system": "UACC-62"}, "OVCAR-3": {"test_system": "OVCAR-3"}, "A549": {"test_system": "A549"}, "LOX IMVI": {"test_system": "LOX IMVI"}, "T47D": {"test_system": "T47D"}, "SF-268": {"test_system": "SF-268"}, "EKVX": {"test_system": "EKVX"}, "K562": {"test_system": "K562"}, "HT-29": {"test_system": "HT-29"}, "SK-MEL-28": {"test_system": "SK-MEL-28"}, "OVCAR-8": {"test_system": "OVCAR-8"}, "UACC-257": {"test_system": "UACC-257"}, "KM12": {"test_system": "KM12"}, "MCF7": {"test_system": "MCF7"}, "NCI-H522": {"test_system": "NCI-H522"}, "BT-549": {"test_system": "BT-549"}, "SK-MEL-5": {"test_system": "SK-MEL-5"}, "M14": {"test_system": "M14"}, "SK-MEL-2": {"test_system": "SK-MEL-2"}, "A498": {"test_system": "A498"}, "Hs-578T": {"test_system": "Hs-578T"}, "HCT-116": {"test_system": "HCT-116"}, "TK-10": {"test_system": "TK-10"}, "IGROV-1": {"test_system": "IGROV-1"}, "UO-31": {"test_system": "UO-31"}, "MDA-N": {"test_system": "MDA-N"}, "NCI-H460": {"test_system": "NCI-H460"}, "SW-620": {"test_system": "SW-620"}}, "note": "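These data come from cells grown in 96-well plates and exposed to compound for 48 hours at five concentrations. GI50 = concentration required for 50% inhibition of growth.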 The source made the active and inactive calls. Cut-off read from the data, not from the text of the source: active = GI50 up to about 1.1 µM and inactive = higher."}
{"smiles": "CCOC(=O)N1c2ccccc2S(=O)(=O)c2ccccc21", "values": [{"measurement": "GI50", "setting": "SF-295", "result": "> 100 µM (inactive)"}, {"measurement": "GI50", "setting": "SF-539", "result": "> 100 µM (inactive)"}, {"measurement": "GI50", "setting": "HOP-62", "result": "> 100 µM (inactive)"}, {"measurement": "GI50", "setting": "NCI/ADR-RES", "result": "> 100 µM (inactive)"}, {"measurement": "GI50", "setting": "SK-OV-3", "result": "> 100 µM (inactive)"}, {"measurement": "GI50", "setting": "HCT-15", "result": "> 100", "unit": "µM"}, {"measurement": "GI50", "setting": "MDA-MB-231", "result": "> 100 µM (inactive)"}, {"measurement": "GI50", "setting": "SNB-19", "result": "> 100 µM (inactive)"}, {"measurement": "GI50", "setting": "786-0", "result": "> 100 µM (inactive)"}, {"measurement": "GI50", "setting": "NCI-H23", "result": "> 100 µM (inactive)"}, {"measurement": "GI50", "setting": "U-251", "result": "> 100 µM (inactive)"}, {"measurement": "GI50", "setting": "RXF 393", "result": "> 100 µM (inactive)"}, {"measurement": "GI50", "setting": "HL-60", "result": "> 100 µM (inactive)"}, {"measurement": "GI50", "setting": "SN12C", "result": "> 100 µM (inactive)"}, {"measurement": "GI50", "setting": "HCC 2998", "result": "> 100 µM (inactive)"}, {"measurement": "GI50", "setting": "ACHN", "result": "> 100 µM (inactive)"}, {"measurement": "GI50", "setting": "PC-3", "result": "> 100 µM (inactive)"}, {"measurement": "GI50", "setting": "CCRF-CEM", "result": "> 100 µM (inactive)"}, {"measurement": "GI50", "setting": "NCI-H226", "result": "> 100 µM (inactive)"}, {"measurement": "GI50", "setting": "CAKI-1", "result": "> 100 µM (inactive)"}, {"measurement": "GI50", "setting": "OVCAR-5", "result": "> 100 µM (inactive)"}, {"measurement": "GI50", "setting": "OVCAR-4", "result": "> 100 µM (inactive)"}, {"measurement": "GI50", "setting": "MOLT-4", "result": "> 100 µM (inactive)"}, {"measurement": "GI50", "setting": "COLO 205", "result": "> 100 µM (inactive)"}, {"measurement": "GI50", "setting": "MDA-MB-435", "result": "> 100 µM (inactive)"}, {"measurement": "GI50", "setting": "DU-145", "result": "> 100 µM (inactive)"}, {"measurement": "GI50", "setting": "UACC-62", "result": "> 100 µM (inactive)"}, {"measurement": "GI50", "setting": "OVCAR-3", "result": "> 100 µM (inactive)"}, {"measurement": "GI50", "setting": "A549", "result": "> 100 µM (inactive)"}, {"measurement": "GI50", "setting": "LOX IMVI", "result": "> 100 µM (inactive)"}, {"measurement": "GI50", "setting": "T47D", "result": "67.8 µM (inactive)"}, {"measurement": "GI50", "setting": "SF-268", "result": "> 100 µM (inactive)"}, {"measurement": "GI50", "setting": "EKVX", "result": "> 100 µM (inactive)"}, {"measurement": "GI50", "setting": "K562", "result": "> 100 µM (inactive)"}, {"measurement": "GI50", "setting": "HT-29", "result": "> 100 µM (inactive)"}, {"measurement": "GI50", "setting": "SK-MEL-28", "result": "> 100 µM (inactive)"}, {"measurement": "GI50", "setting": "OVCAR-8", "result": "> 100 µM (inactive)"}, {"measurement": "GI50", "setting": "UACC-257", "result": "> 100 µM (inactive)"}, {"measurement": "GI50", "setting": "KM12", "result": "> 100 µM (inactive)"}, {"measurement": "GI50", "setting": "MCF7", "result": "> 100 µM (inactive)"}, {"measurement": "GI50", "setting": "NCI-H522", "result": "> 100 µM (inactive)"}, {"measurement": "GI50", "setting": "BT-549", "result": "> 100 µM (inactive)"}, {"measurement": "GI50", "setting": "SK-MEL-5", "result": "> 100 µM (inactive)"}, {"measurement": "GI50", "setting": "M14", "result": "> 100 µM (inactive)"}, {"measurement": "GI50", "setting": "SK-MEL-2", "result": "> 100 µM (inactive)"}, {"measurement": "GI50", "setting": "A498", "result": "> 100 µM (inactive)"}, {"measurement": "GI50", "setting": "Hs-578T", "result": "> 100 µM (inactive)"}, {"measurement": "GI50", "setting": "HCT-116", "result": "> 100 µM (inactive)"}, {"measurement": "GI50", "setting": "TK-10", "result": "> 100 µM (inactive)"}, {"measurement": "GI50", "setting": "IGROV-1", "result": "> 100 µM (inactive)"}, {"measurement": "GI50", "setting": "UO-31", "result": "> 100 µM (inactive)"}, {"measurement": "GI50", "setting": "MDA-N", "result": "> 100 µM (inactive)"}, {"measurement": "GI50", "setting": "NCI-H460", "result": "> 100 µM (inactive)"}, {"measurement": "GI50", "setting": "SW-620", "result": "> 100 µM (inactive)"}]}
